Data taken from US12319652B2, “Salts and solid forms of (R)-1-(5-methoxy-1H-indol-1-yl)-N,N-dimethylpropan-2-amine” (priority 2021, dated 2025).

Assays:
Assay type in all cases: physicochemical
[1] = Solubility determinations in SIF buffers (FaSSIF, FeSSIF, FaSSGF); settings: 37° C. up to 24 h
Description: At this stage ca. 1 g of each front-runner salt form was prepared. Salt forms that offered significant solubility and stability advantages over the non-ionized API were prioritized. […] Scale Up
The solubility of the salts below was determined in FaSSIF, FeSSIF and FaSSGF by reference to the calibration curve of amorphous compound 1.
Separate portions of compound 1 were weighed out into aluminum boats and were charged to the relevant volumetric flasks. Solutions were made to volume with 1 to 1 (v/v) acetonitrile/purified water to give calibrants of known API concentrations and analyzed by HPLC, suitable to determine the concentration of compound 1 free base in the SIF buffer solubility study.
Each sample (150 mg) was suspended in the relevant SIF buffer (5.0 ml), to give a concentration of 30 mg/ml and maintain at 37° C. for 24 h. The pH was adjusted using 1 M HCl or 1 M NaOH, to ensure that the suspension remains in range.
Sample (1 ml) of the well-stirred representative suspensions was obtained at 1 h, 3 h, 6 h and 24 h and the pH was recorded. The pH of the bulk suspension was re-adjusted when necessary. The obtained sample from each vial was centrifuged, and the supernatant was analysed by HPLC (note, the analyte was diluted, when outside of the calibration range); XRPD analysis was performed on the wet sample pellet for evidence of form change, as well as on the oven-dried pellet (undervacuum at 40° C.).

[2] = In-situ hydration evaluation of monofumarate Form A; settings: ambient
Description: An XRPD specimen of monofumarate Form A was prepared and treated with sequential aliquots of water.
An XRPD plate was made up with a small amount of compound 1·Fumarate (batch 1, 5 mg, 1.0 wt) and analysed by XRPD on the 9-minute method and labelled as T=0. After the run, the sample was charged with purified water (10 μL, 2.0 vol) and analysed again by XRPD, labelled as T=9. This was repeated twice more for T=18 and T=27. The sample was left to stand under ambient conditions (15-25° C., ambient humidity, and pressure) in the fume hood for 33 h (FIG. 23).

[3] = Dynamic vapor sorption (DVS); settings: for DVS isotherm type / hygroscopicity: 0 to 90 to 0% RH; for DVS mass change at 90.0% RH / DVS mass change at 0.0% RH / DVS mass change at 5.0% RH / DVS mass change at 10.0% RH / DVS mass change at 15.0% RH / DVS mass change at 20.0% RH / DVS mass change at 25.0% RH / DVS mass change at 30.0% RH / DVS mass change at 40.0% RH / DVS mass change at 50.0% RH / DVS mass change at 60.0% RH / DVS mass change at 70.0% RH / DVS mass change at 80.0% RH: dm/dt <0.002%
Description: There are two main methods to use, one is by time where the equilibration is given by a fixed time, i.e., 1 hour per step and is appropriate for an unknown phase. The second, is by mass per time unit (dm/dt) of 0.002%/min; that is when the difference in weight is less than 0.002%, the instrument moves onto the next step. For unknown hygroscopicity, the method by time is indicated because it gives an idea of water affinity without wasting much time. Ideally the analyses are repeated using the mass equilibration method to confirm. By experience for hygroscopic samples, the analysis can continue for days. For non-hygroscopic samples the difference between the two methods may not be significant.
Consequently, amorphous batch 1 was analyzed by the fixed time method and once compound 1 fumarate crystalline polymorphic Form A was generated the analyses was repeated as mass per unit time equilibrated @dm/dt ([…]) and is given below (refer to FIG. 12).
(§1) The moisture sorption properties of the feed API were analysed by DVS Intrinsic instrument (Surface Measurement System). Approximately 20 to 50 mg of API was weighed onto an aluminium pan and loaded into the instrument equilibrated at 25° C. The sample was equilibrated under a dry atmosphere (0% relative humidity) for 60 minutes, before increasing the humidity from 0% to 30% at 5%4 step increment and from 30% to 90% at 10% step increment. A desorption cycle was also applied from 90% to 30% (10% step decrement) and from 30% to 0% (5% step decrement). A rate of change in mass per time unit (dm/dt) of 0.002%/min was set as the equilibrium parameter. Kinetic and isotherm graphs were calculated.
Specimens were equilibrated at 0% RH for 60 min, prior to DVS analyses (stepped increment % RH up to 90% RH and stepped decrement % RH down to 0% RH.
as §1, with “5%” for “5%4”

COc1ccc2c(ccn2C[C@@H](C)N(C)C)c1.O=C(O)/C=C/C(=O)O
Solubility in FaSSGF [1]: Solubility in SIF buffers: Soluble in FaSSIF, FeSSIF and FaSSGF at 37° | Solubility in FaSSIF [1]: Solubility in SIF buffers: Soluble in FaSSIF, FeSSIF and FaSSGF at 37° | Solubility in FeSSIF [1]: Solubility in SIF buffers: Soluble in FaSSIF, FeSSIF and FaSSGF at 37° | Form change on treatment with sequential aliquots of water (XRPD) [2]: conversion into its amorphous form | RH above which pronounced mono, multilayer sorption and probable deliquescence occurred [3]: > 80 % RH | DVS isotherm type / hygroscopicity ([3]; listed as Form A): DVS mass per unit time equlibrated @ dm/dt (0.0002%/min) on Form A was performed (specimen was deliquescent by DVS). | DVS isotherm type / hygroscopicity ([3]; listed as compound 1 fumarate crystalline polymorphic Form A): deliquescent type isotherm | DVS weight gain at 70% RH ([3]; 70% RH (printed 70° RH in Example 8)): ca. 1 % w/w | DVS mass change at 90.0% RH ([3]; desorption step (second 90.0 entry)): 9.440% | DVS mass change at 0.0% RH ([3]; desorption step): 0.085% | DVS mass change at 5.0% RH ([3]; desorption step): 0.113% | DVS mass change at 10.0% RH ([3]; desorption step): 0.141% | DVS mass change at 15.0% RH ([3]; desorption step): 0.169% | DVS mass change at 20.0% RH ([3]; desorption step): 0.201% | DVS mass change at 25.0% RH ([3]; desorption step): 0.238% | DVS mass change at 30.0% RH ([3]; desorption step): 0.279% | DVS mass change at 40.0% RH ([3]; desorption step): 0.374% | DVS mass change at 50.0% RH ([3]; desorption step): 0.476% | DVS mass change at 60.0% RH ([3]; desorption step): 0.619% | DVS mass change at 70.0% RH ([3]; desorption step): 0.885% | DVS mass change at 80.0% RH ([3]; desorption step): 2.087% | DVS mass change at 0.0% RH ([3]; sorption step): 0.00% | DVS mass change at 5.0% RH ([3]; sorption step): 0.021% | DVS mass change at 10.0% RH ([3]; sorption step): 0.047% | DVS mass change at 15.0% RH ([3]; sorption step): 0.068% | DVS mass change at 20.0% RH ([3]; sorption step): 0.088% | DVS mass change at 25.0% RH ([3]; sorption step): 0.107% | DVS mass change at 30.0% RH ([3]; sorption step): 0.125% | DVS mass change at 40.0% RH ([3]; sorption step): 0.173% | DVS mass change at 50.0% RH ([3]; sorption step): 0.242% | DVS mass change at 60.0% RH ([3]; sorption step): 0.366% | DVS mass change at 70.0% RH ([3]; sorption step): 0.590% | DVS mass change at 80.0% RH ([3]; sorption step): 0.174% | DVS mass change at 90.0% RH ([3]; sorption step): 9.440%
